Read-outs that look alike come from different tables or passages of the source.
Key:
[1] = test system: Hedgehog pathway activation on 10T1/2/Smo#3 cells (C3H10T1/2 cells transfected with human Smoothened receptor); test: Hedgehog pathway activation on 10T1/2/Smo#3 cells measured by ALP activity; assay type: cell-based
Summary of the method: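 Inhibition of alkaline phosphatase induction, read fluorometrically from 4-methylumbelliferyl phosphate conversion, gave IC50 values; CellTiter-Blue tracked viability in parallel. Cells were the human Smo-transfected 10T1/2/Smo#3 pool, stimulated by 10-20% hShh conditioned medium or the Smo agonist SAG (500 nM).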

[2] = test system: Hedgehog pathway activation (GLi-luciferase reporter) in Shh Light II reporter cells; test: Hedgehog pathway activation on Shh Light II reporter cells measured by luciferase activity; assay type: cell-based
Summary of the method: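 Shh Light II reporter cells carrying a hedgehog-responsive GLi-luciferase reporter were stimulated either with 500 nM SAG, a direct Smoothened agonist, or with conditioned media containing human Sonic Hedgehog (hShh). Test compounds were evaluated for blocking this pathway activation, quantified by luciferase activity. Cell viability was monitored in parallel with the Celltiter-Blue® assay.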

[3] = Mus musculus, C3H 10T1/2, 10T1/2/Smo#3 cells, measured by ALP activity, read-out: ALP (IC50, inhibition of Hedgehog pathway activation)
[4] = Mus musculus, Shh Light II, hShh activation, read-out: Shh (IC50, inhibition of Hedgehog pathway activation)
[5] = Mus musculus, C3H 10T1/2, 10T1/2/Smo#3 cells, hShh activation, ALP activity, read-out: 10T1/2/Smo#3 ALP activity (hShh Activation)
[6] = Mus musculus, Shh Light II, SAG activation (500 nM SAG), read-out: Shh Light II luciferase activity (SAG activation)
[7] = Mus musculus, Shh Light II, hShh activation, read-out: Shh Light II luciferase activity (hShh activation)
[8] = 10T1/2/Smo#3 cells, measured by ALP activity, read-out: ALP (IC50, inhibition of Hedgehog pathway activation)
[9] = hShh activation, read-out: Shh (IC50, inhibition of Hedgehog pathway activation)

IC50 [1, 3] [nM]	IC50 [2, 4] [nM]	IC50 [1, 5] [nM]	IC50 [2, 6] [nM]	IC50 [2, 7] [nM]	IC50 [1, 8] [nM]	IC50 [2, 9] [nM]	SMILES
789	1770	–	–	–	–	–	Cc1ccc(-c2cn3nc(SCc4ccccc4)ccc3n2)cc1NC(=O)C(C)(C)C [Example 129, N-(5-(6-(benzylthio)imidazo[1,2-b]pyridazin-2-yl)-2-methylphenyl)pivalamide]
627	2510	–	–	–	–	–	Cc1c(-c2ccccc2)nc2ccc(N3CCN(Cc4ccccn4)CC3)nn12 [Example 160, 3-methyl-2-phenyl-6-(4-(pyridin-2-ylmethyl)piperazin-1-yl)imidazo[1,2-b]pyridazine]
218	149	–	–	–	–	–	O=C(Nc1cc(-c2cn3nc(-c4cccnc4C(F)(F)F)ccc3n2)ccc1F)N1CCCC1 [Example 686, N-(2-fluoro-5-(6-(2-(trifluoromethyl)pyridin-3-yl)imidazo[1,2-b]pyridazin-2-yl)phenyl)pyrrolidine-1-carboxamide]
462	491	–	–	–	–	–	CC(C)(C)C(=O)Nc1cc(-c2cn3nc(N4CCS(=O)(=O)CC4)ccc3n2)ccc1C(F)(F)F [Example 287, N-{5-[6-(1,1-dioxidothiomorpholin-4-yl)imidazo[1,2-b]pyridazin-2-yl]-2-(trifluoromethyl)phenyl}-2,2-dimethylpropanamide]
226	311	–	–	–	–	–	CCc1ccc(-c2cn3nc(-c4ccccc4C#N)ccc3n2)cc1NC(=O)C(C)(C)C [Example 296, N-(5-(6-(2-cyanophenyl)imidazo[1,2-b]pyridazin-2-yl)-2-ethylphenyl)pivalamide]
–	–	–	–	–	114	115	CC(C)(C)C(=O)Nc1cc(-c2cn3nc(N4CCC(O)C4)ccc3n2)ccc1C(F)(F)F (centres unmarked) [Example 467, N-(5-(6-(3-hydroxypyrrolidin-1-yl)imidazo[1,2-b]pyridazin-2-yl)-2-(trifluoromethyl)phenyl)pivalamide]
–	–	–	–	–	35	131	CCc1ccc(-c2cn3nc(-c4cccnc4C(F)(F)F)ccc3n2)cc1NC(=O)C1(C)CC1 [Example 636, N-(2-ethyl-5-(6-(2-(trifluoromethy)pyridin-3-y)imidazo[1,2-b]pyridazin-2-yl)phenyl)-1-methylcyclopropanecarboxamide]
39	11	< 300	< 300	< 300	–	–	Cc1ccc(-c2cn3nc(-c4ncccc4C(F)(F)F)ccc3n2)cc1NC(=O)C(C)(C)C [Example 400, N-(2-methyl-5-(6-(3-(trifluoromethyl)pyridin-2-yl)imidazo[1,2-b]pyridazin-2-yl)phenyl)pivalamide]
7010	890	3000 to 30000	3000 to 30000	300 to 3000	–	–	COc1ccc2nc(-c3ccc(C)c(NC(=O)Cc4ccc(Cl)cc4)c3)cn2n1 [Example 101, 2-(4-chlorophenyl)-N-(5-(6-methoxyimidazo[1,2-b]pyridazin-2-yl)-2-methylphenyl)acetamide]
1120	679	–	–	–	–	–	COc1ccc2nc(-c3ccc(C)c(NC(=O)c4ccccc4)c3)cn2n1 [Example 97, N-(5-(6-methoxyimidazo[1,2-b]pyridazin-2-yl)-2-methylphenyl)benzamide]
490	563	–	–	–	–	–	CC(=O)Nc1ccccc1-c1ccc2nc(-c3ccc(C(F)(F)F)c(NC(=O)C(C)(C)C)c3)cn2n1 [Example 255, N-(5-(6-(2-acetamidophenyl)imidazo[1,2-b]pyridazin-2-yl)-2-(trifluoromethyl)phenyl)pivalamide]
1970	995	–	–	–	–	–	Cc1c(-c2ccccc2)nc2ccc(N3CCN(Cc4ccc(OC(F)(F)F)cc4)CC3)nn12 [Example 166, 3-methyl-2-phenyl-6-(4-(4-(trifluoromethoxy)benzyl)piperazin-1-yl)imidazo[1,2-b]pyridazine]
61	191	–	–	–	–	–	CC(C)(C)C(=O)Nc1cc(-c2cn3nc(-c4c(F)cccc4F)ccc3n2)ccc1C(F)(F)F [Example 184, N-(5-(6-(2,6-difluorophenyl)imidazo[1,2-b]pyridazin-2-yl)-2-(trifluoromethyl)phenyl)pivalamide]
636	826	300 to 3000	300 to 3000	300 to 3000	–	–	Cc1ccc(-c2nc3ccc(N4CCC(O)CC4)nn3c2C)cc1NC(=O)C(C)(C)C [Example 313, N-(5-(6-(4-hydroxypiperidin-1-yl)-3-methylimidazo[1,2-b]pyridazin-2-yl)-2-methylphenyl)pivalamide]
2550	559	–	–	–	–	–	CC(C)OC(=O)Nc1cc(-c2cn3nc(-c4cccnc4C(F)(F)F)ccc3n2)ccc1F [Example 683, isopropyl 2-fluoro-5-(6-(2-(trifluoromethyl)pyridin-3-yl)imidazo[1,2-b]pyridazin-2-yl)phenylcarbamate]
339	329	–	–	–	–	–	CC1CCN(c2ccc3nc(-c4ccc(C(F)(F)F)c(NC(=O)C(C)(C)C)c4)cn3n2)CC1 [Example 233, N-(5-(6-(4-methylpiperidin-1-yl)imidazo[1,2-b]pyridazin-2-yl)-2-(trifluoromethyl)phenyl)pivalamide]
463	452	–	–	–	–	–	CC(C)(C)OC(=O)NC1CCN(c2ccc3nc(-c4ccc(C(F)(F)F)c(NC(=O)C(C)(C)C)c4)cn3n2)C1 (centres unmarked) [Example 297, tert-butyl 1-(2-(3-pivalamido-4-(trifluoromethyl)phenyl)imidazo[1,2-b]pyridazin-6-yl)pyrrolidin-3-ylcarbamate]

Second part, the compound before the results:

SMILES	IC50 [1, 3] [nM]	IC50 [2, 4] [nM]	IC50 [1, 5] [nM]	IC50 [2, 6] [nM]	IC50 [2, 7] [nM]	IC50 [1, 8] [nM]	IC50 [2, 9] [nM]
CCOc1ccc2nc(-c3ccc(C(F)(F)F)c(NC(=O)C(C)(C)C(F)(F)F)c3)cn2n1 [Example 188, N-(5-(6-ethoxyimidazo[1,2-b]pyridazin-2-yl)-2-(trifluoromethyl)phenyl)-3,3,3-trifluoro-2,2-dimethylpropanamide]	875	1400	–	–	–	–	–
Cc1cc(Cl)c(-c2cn3nc(-c4cccnc4C(F)(F)F)ccc3n2)cc1NC(=O)C(C)(C)C [Example 639, N-(4-chloro-2-methyl-5-(6-(2-(trifluoromethyl)pyridin-3-yl)imidazo[1,2-b]pyridazin-2-yl)phenyl)pivalamide]	55	30	< 300	< 300	< 300	–	–
CC(C)(C)C(=O)Nc1cc(-c2cn3nc(N4CCC(O)CC4)ccc3n2)ccc1C1CC1 [Example 273, N-(2-cyclopropyl-5-(6-(4-hydroxypiperidin-1-yl)imidazo[1,2-b]pyridazin-2-yl)phenyl)pivalamide]	442	–	300 to 3000	3000 to 30000	3000 to 30000	–	–
Cc1ccc(-c2cn3nc(-c4cccnc4C(F)(F)F)ccc3n2)cc1NC(=O)CCCCCCC(=O)NO [Example 429, N^1-hydroxy-N^8-(2-methyl-5-(6-(2-(trifluoromethyl)pyridin-3-yl)imidazo[1,2-b]pyridazin-2-yl)phenyl)octanediamide]	1280	167	300 to 3000	300 to 3000	3000 to 30000	–	–
CC(CC(=O)Nc1cc(-c2cn3nc(-c4cccnc4C(F)(F)F)ccc3n2)c(F)cc1Cl)C(F)(F)F (centres unmarked) [Example 661, N-(2-chloro-4-fluoro-5-(6-(2-(trifluoromethyl)pyridin-3-yl)imidazo[1,2-b]pyridazin-2-yl)phenyl)-4,4,4-trifluoro-3-methylbutanamide]	15	31	–	–	–	–	–
CC(C)(C)C(=O)Nc1cc(-c2cn3cc(Cl)ncc3n2)ccc1C(F)(F)F [Example 85, N-(5-(6-chloroimidazo[1,2-a]pyrazin-2-yl)-2-(trifluoromethyl)phenyl)pivalamide]	1320	4390	–	–	–	–	–
CC(C)(C)C(=O)Nc1cc(-c2cn3nc(-c4nccs4)ccc3n2)ccc1C(F)(F)F [Example 148, N-(5-(6-(thiazol-2-yl)imidazo[1,2-b]pyridazin-2-yl)-2-(trifluoromethyl)phenyl)pivalamide]	1940	608	300 to 3000	300 to 3000	300 to 3000	–	–
CCOC(=O)CCCCCCOc1ccc(C(F)(F)F)c(-c2ccc3nc(-c4ccc(C)c(NC(=O)C(C)(C)C)c4)cn3n2)c1 [Example 425, ethyl 7-(3-(2-(4-methyl-3-pivalamidophenyl)imidazo[1,2-b]pyridazin-6-yl)-4-(trifluoromethyl)phenoxy)heptanoate]	239	86	–	–	–	–	–
Cc1c(-c2cccc(NC(=O)C3CCCCC3)c2)nc2ncccn12 [Example 92, N-(3-(3-methylimidazo[1,2-a]pyrimidin-2-yl)phenyl)cyclohexanecarboxamide]	–	–	3000 to 30000	3000 to 30000	3000 to 30000	–	–
COCCN(CCOC)c1ccc2nc(-c3ccc(C(F)(F)F)c(NC(=O)C(C)(C)C)c3)cn2n1 [Example 380, N-(5-(6-(bis(2-methoxyethyl)amino)imidazo[1,2-b]pyridazin-2-yl)-2-(trifluoromethyl)phenyl)pivalamide]	383	273	–	–	–	–	–
CC(C)(C)C(=O)Nc1cc(-c2cn3ncccc3n2)ccc1Cl [Example 113, N-(2-chloro-5-(imidazo[1,2-b]pyridazin-2-yl)phenyl)pivalamide]	1560	1000	300 to 3000	3000 to 30000	300 to 3000	–	–

From patent publication US8871767B2, “2-arylimidazo[1,2-B]pyridazine, 2-phenylimidazo[1,2-A]pyridine, and 2-phenylimidazo[1,2-A]pyrazine derivatives” (Hengrui (USA) Ltd., priority 2010, dated 2014)
